Legend:
[1] = target: VEGFR2 (purified cytoplasmic domain KDR protein) (Homo sapiens (Human), UniProt P35968); assay: VEGFR2 Kinase Assay (biochemical KDR kinase, poly-Glu-Tyr ELISA); settings: 2.7 μM ATP, 15 minute incubation at 30° C.
Protocol: VEGFR2 Kinase Assay […] Test compounds were reconstituted in 100% DMSO and added to the reaction to give a final DMSO concentration of 5%. […] Following a 15 minute incubation at 30° C., the reactions were washed 2 mls per well PBS-T. 100 μl of a monoclonal anti-phosphotyrosine antibody-peroxidase conjugate diluted 1:10,000 in PBS-T was added to the wells for 30 minutes. Following a 2 mls per well wash with PBS-Tween-20, 100 μl of 0-Phenylenediamine Dihydrochloride in phosphate-citrate buffer, containing urea hydrogen peroxide, was added to the wells for 7-10 minutes as a colorimetric substrate for the peroxidase. The reaction was terminated by the addition of 100 μl of 2.5N H2SO4 to each well and read using a microplate ELISA reader set at 492 nm. IC50 values for compound inhibition were calculated directly from graphs of optical density (arbitrary units) versus compound concentration following subtraction of blank values.

[2] = target: PDGFRβ (purified cytoplasmic domain PDGFR-b protein) (Homo sapiens (Human), UniProt P09619); assay: PDGFRβ Kinase Assay (biochemical, poly-Glu-Tyr ELISA); settings: 36 μM ATP, 60 minute incubation at 30° C.
Chain of PDGFRβ (purified cytoplasmic domain PDGFR-b protein) (P09619 554-1106): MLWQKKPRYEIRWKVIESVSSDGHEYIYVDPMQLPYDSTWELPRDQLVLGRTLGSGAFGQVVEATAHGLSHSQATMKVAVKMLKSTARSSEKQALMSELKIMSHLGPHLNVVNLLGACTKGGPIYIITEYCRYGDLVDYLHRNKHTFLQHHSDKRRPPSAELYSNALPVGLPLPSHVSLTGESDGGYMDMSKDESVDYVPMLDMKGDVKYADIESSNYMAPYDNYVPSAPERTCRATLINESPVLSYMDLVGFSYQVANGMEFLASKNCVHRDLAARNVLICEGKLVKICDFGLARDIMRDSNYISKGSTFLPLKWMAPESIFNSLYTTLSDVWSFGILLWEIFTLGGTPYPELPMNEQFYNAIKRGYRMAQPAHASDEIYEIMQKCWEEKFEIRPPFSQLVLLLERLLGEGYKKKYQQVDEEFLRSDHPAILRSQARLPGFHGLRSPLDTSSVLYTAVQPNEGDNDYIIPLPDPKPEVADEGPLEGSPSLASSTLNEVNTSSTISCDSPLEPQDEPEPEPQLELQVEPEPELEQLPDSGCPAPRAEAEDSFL
Protocol: Biochemical PDGFRβ kinase assays were performed in 96 well microtiter plates that were coated overnight with 75 μg of poly-Glu-Tyr (4:1) in 10 mM Phosphate Buffered Saline (PBS), pH 7.4. The coated plates were washed with 2 mls per well PBS+0.05% Tween-20 (PBS-T), blocked by incubation with PBS containing 1% BSA, then washed with 2 mls per well PBS-T prior to starting the reaction. Reactions were carried out in 100 μL reaction volumes containing 36 μM ATP in kinase buffer (50 mM Hepes buffer pH 7.4, 20 mM MgCl2, 0.1 mM MnCl2 and 0.2 mM Na3VO4). Test compounds were reconstituted in 100% DMSO and added to the reaction to give a final DMSO concentration of 5%. Reactions were initiated by the addition 20 ul per well of kinase buffer containing 200-300 ng purified cytoplasmic domain PDGFR-b protein (Millipore). Following a 60 minute incubation at 30° C., the reactions were washed 2 mls per well PBS-T. 100 μl of a monoclonal anti-phosphotyrosine antibody-peroxidase conjugate diluted 1:10,000 in PBS-T was added to the wells for 30 minutes. Following a 2 mls per well wash with PBS-Tween-20, 100 μl of 0-Phenylenediamine Dihydrochloride in phosphate-citrate buffer, containing urea hydrogen peroxide, was added to the wells for 7-10 minutes as a colorimetric substrate for the peroxidase. The reaction was terminated by the addition of 100 μl of 2.5N H2SO4 to each well and read using a microplate ELISA reader set at 492 nm. IC50 values for compound inhibition were calculated directly from graphs of optical density (arbitrary units) versus compound concentration following subtraction of blank values.

[3] = target: recombinant human GST-PKR (Homo sapiens (Human), UniProt P19525); assay: PKR KinaseGlo Assay; assay type: biochemical; settings: 6.6 uM ATP, 10 minutes at room temperature
Chain of recombinant human GST-PKR (P19525 whole entry): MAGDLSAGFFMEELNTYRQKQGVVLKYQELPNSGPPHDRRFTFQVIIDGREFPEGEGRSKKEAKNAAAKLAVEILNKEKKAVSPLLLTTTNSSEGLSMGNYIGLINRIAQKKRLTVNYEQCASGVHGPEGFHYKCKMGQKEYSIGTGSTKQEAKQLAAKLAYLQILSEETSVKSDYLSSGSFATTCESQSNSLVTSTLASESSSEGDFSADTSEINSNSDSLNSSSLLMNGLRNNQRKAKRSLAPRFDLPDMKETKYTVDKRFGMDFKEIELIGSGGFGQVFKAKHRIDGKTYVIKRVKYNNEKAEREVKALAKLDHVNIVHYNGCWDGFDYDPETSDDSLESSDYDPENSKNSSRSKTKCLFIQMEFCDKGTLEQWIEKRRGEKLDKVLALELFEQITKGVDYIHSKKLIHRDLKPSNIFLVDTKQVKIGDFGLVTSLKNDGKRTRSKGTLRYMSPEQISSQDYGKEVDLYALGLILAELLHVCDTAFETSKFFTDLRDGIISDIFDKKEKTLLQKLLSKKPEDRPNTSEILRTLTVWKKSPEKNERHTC
Protocol: Commercially available recombinant human GST-PKR (SignalChem, Canada; 1.5 uM-2 uM stock) is diluted to 500 nM in assay buffer (20 mM Tris-HCl, pH 7.2, 10 mM KCl, 10 mM MgCl2, 10% glycerol). Preactivated PKR is dispensed to 384/96-well black plates at 3.125/12.5 uls/well using the liquid handler Janus. Appropriate dilutions of inhibitors are added to 384/96-well plate followed by 6.6 uM ATP (final) and incubated for 10 minutes at room temperature. The remaining ATP/well is determined by adding 6.25/25 uls/well Kinase-Glo assay mix (Promega) and luminescence is measured on EnVision luminescence plate reader (integration time, 0.2 sec; Perkin-Elmer, Massachusetts, USA). The % inhibition for the compounds is calculated using ATP only (100% inhibition) and PKR+ATP (0% inhibition). […] values are determined by plotting % activity versus inhibitor concentration. Curves are fitted using Activity base XLfit (IDBS, UK) using the formula— • 4 Parameter Logistic Model fit=(A+((B−A)/(1+(10^((C−x)*D))))) inv=(C−(log(((B−A)/(y−A))−1)/D)) res=(y−fit)

Chain of VEGFR2 (purified cytoplasmic domain KDR protein) (P35968 786-1356): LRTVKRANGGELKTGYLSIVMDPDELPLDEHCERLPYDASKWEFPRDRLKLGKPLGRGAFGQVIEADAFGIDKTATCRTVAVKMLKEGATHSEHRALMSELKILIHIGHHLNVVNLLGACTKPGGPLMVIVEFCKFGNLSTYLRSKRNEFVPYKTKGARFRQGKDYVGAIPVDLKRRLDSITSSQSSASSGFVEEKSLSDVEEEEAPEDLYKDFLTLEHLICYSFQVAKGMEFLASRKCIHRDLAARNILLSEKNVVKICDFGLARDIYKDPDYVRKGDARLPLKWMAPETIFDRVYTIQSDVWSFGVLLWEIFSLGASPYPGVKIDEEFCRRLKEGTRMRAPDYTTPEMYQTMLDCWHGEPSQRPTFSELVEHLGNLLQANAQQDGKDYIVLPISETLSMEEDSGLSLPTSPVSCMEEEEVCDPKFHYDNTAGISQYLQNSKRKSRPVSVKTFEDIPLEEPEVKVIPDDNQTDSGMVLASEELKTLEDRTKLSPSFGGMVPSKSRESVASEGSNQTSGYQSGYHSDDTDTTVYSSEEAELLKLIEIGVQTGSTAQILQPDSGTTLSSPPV

Compound	IC50 [1]	IC50 [2]	IC50 [3]
N-phenyl-6-(pyridin-3-ylcarbonyl)-5,6,7,8-tetrahydropyrido[4,3-d]pyrimidin-2-amine [Example 2]	> 100000 nM	–	89 nM
COc1ccc(Nc2ncc3c(n2)CCN(C(=O)c2cccnc2)C3)cc1OC [Example 16, N-(3,4-dimethoxyphenyl)-6-(pyridin-3-ylcarbonyl)-5,6,7,8-tetrahydropyrido[4,3-d]pyrimidin-2-amine]	–	–	176 nM
COc1cc(Nc2ncc3c(n2)CCN(C(=O)c2ccccn2)C3)cc(OC)c1OC [Example 15, 6-(pyridin-2-ylcarbonyl)-N-(3,4,5-trimethoxyphenyl)-5,6,7,8-tetrahydropyrido[4,3-d]pyrimidin-2-amine]	1850 nM	–	2820 nM
O=C(Nc1cccnc1)N1CCc2nc(Nc3ccccc3)ncc2C1 [Example 3, 2-anilino-N-pyridin-3-yl-7,8-dihydropyrido[4,3-d]pyrimidine-6(5H)-carboxamide]	> 10000 nM	–	282 nM
COc1cc(Nc2ncc3c(n2)CCN(C(=O)c2cccnc2)C3)cc(OC)c1 [Example 17, N-(3,5-dimethoxyphenyl)-6-(pyridin-3-ylcarbonyl)-5,6,7,8-tetrahydropyrido[4,3-d]pyrimidin-2-amine]	–	–	130 nM

Next, values leading:

IC50 [1]	IC50 [2]	IC50 [3]	Compound
16 nM	130 nM	–	Cn1nccc1Nc1ncc2c(n1)CCN(C(=O)c1cccnc1)C2 [Example 8, N-(1-methyl-1H-pyrazol-5-yl)-6-(pyridin-3-ylcarbonyl)-5,6,7,8-tetrahydropyrido[4,3-d]pyrimidin-2-amine]
8 nM	–	–	COc1cc(Nc2ncc3c(n2)CCN(C(=O)c2cccs2)C3)cc(OC)c1OC [Example 13, 6-(2-thienylcarbonyl)-N-(3,4,5-trimethoxyphenyl)-5,6,7,8-tetrahydropyrido[4,3-d]pyrimidin-2-amine]
10 nM	244 nM	–	COc1ccccc1Nc1ncc2c(n1)CCN(C(=O)c1cccnc1)C2 [Example 7, N-(2-methoxyphenyl)-6-(pyridin-3-ylcarbonyl)-5,6,7,8-tetrahydropyrido[4,3-d]pyrimidin-2-amine]
6 nM	239 nM	–	COc1cc(Nc2ncc3c(n2)CCN(C(=O)c2occc2C)C3)cc(OC)c1OC [Example 11, 6-(3-methyl-2-furoyl)-N-(3,4,5-trimethoxyphenyl)-5,6,7,8-tetrahydropyrido[4,3-d]pyrimidin-2-amine]
5 nM	17 nM	> 40000 nM	COc1ccc(Nc2ncc3c(n2)CCN(C(=O)c2cccnc2)C3)cc1 [Example 5, N-(4-methoxyphenyl)-6-(pyridin-3-ylcarbonyl)-5,6,7,8-tetrahydropyrido[4,3-d]pyrimidin-2-amine]
443 nM	–	> 40000 nM	COc1cccc(Nc2ncc3c(n2)CCN(C(=O)c2cccnc2)C3)c1 [Example 6, N-(3-methoxyphenyl)-6-(pyridin-3-ylcarbonyl)-5,6,7,8-tetrahydropyrido[4,3-d]pyrimidin-2-amine]
5 nM	19 nM	–	COc1cc(Nc2ncc3c(n2)CCN(C(=O)c2cc(C)nn2C)C3)cc(OC)c1OC [Example 12, 6-[(1,3-dimethyl-1H-pyrazol-5-yl)carbonyl]-N-(3,4,5-trimethoxyphenyl)-5,6,7,8-tetrahydropyrido[4,3-d]pyrimidin-2-amine]
